Experimental data as given in US4331670A (priority 1979, dated 1982).

Columns and labels:
Botrytis cinerea = assay: Test 9: protective value on cucumber inoculated with Botrytis cinerea; type: in vivo, Botrytis cinerea (cucumber plant, Suyo); details: 72 h; for pest or weed control at 250 ppm: 10 ml sprayed, lesion length three days after inoculation
Protocol: In each unglazed pot having a diameter of 9 cm, cucumber plant (Suyo) was cultured. At one leaf stage, 10 ml. of each solution of each active ingredient having a concentration of 250 ppm was sprayed by a spray gun. After maintaining the pot in a green-house at 24° to 25° C. for one day, a disc (punched agar disc) obtained by culturing Botrytis cinerea on a potato-glucose-agar medium (PDA medium) was put on the leaf of cucumber to inoculate them. Three days after the inoculation, lengths of lesions were measured and each protective value was calculated as Test 2.
In accordance with the test, except the concentration of the active ingredient was decreased, the comparative tests of Compound No. 7 and Reference compound were carried out.

Plutella xylostella = assay: Test 11: mortality of larvae of Plutella xylostella on treated cabbage leaf; type: in vivo; details: foliar, 192 h, leaf dipped, emulsifiable concentrate Composition No. 3, eight days, read-out: Percent mortality
From the text: Each emulsifiable concentrate of each active ingredient as Composition No. 3 was dispersed in water at a concentration of 800 ppm. Each leaf of cabbage was dipped into each emulsion for about 10 seconds and taken up and dried in air.
A wet filter paper was put in each Petri dish (diameter of 9 cm), and each treated leaf was put on the filter paper. Larvae of Plutella xylostella at 2nd to 3rd instar were charged and the dish was covered with a cap and kept in a constant temperature chamber with lighting at 28° C. Eight days after the charge, mortality was measured and each percent mortality was calculated.

Pyricularia orzae = assay: whole plant or invertebrate; type: in vivo, Pyricularia orzae (rice plant, Chukyo Asahi); details: in Oryza sativa, 120 h, read-out: Protective value
Tetranychus telarius (L) = assay: Test 6: mortality of larvae and adults of Tetranychus telarius on kidney bean leaf; type: in vivo; details: foliar, 72 h, leaf dipped, wettable powder of Composition No. 5, three days after treatment, read-out: Percent mortality
Protocol: Young seedling of kidney bean treated to cut off leaves except one primordial leaf was transplanted in a cup and about 30 of larvae and adults of Tetranychus telarius (L) were inoculated on the primordial leaf. This was dipped for 10 seconds in each solution obtained by diluting each wettable powder of Composition No. 5 containing each active ingredient with water at the concentration of 800 ppm and was dried in air and was kept in a constant temperature chamber with lighting at 28° C. Three days after the treatment, mortality was measured and each percent mortality was calculated as follows. [formula]

Sphaerotheca fuliginea = assay: whole plant or invertebrate; type: in vivo, Sphaerotheca fuliginea (cucumber plant, Suyo); details: Podosphaera fuliginea, in Cucumis sativus, 240 h, read-out: Protective value
Rhizoctonia solani = assay: whole plant or invertebrate; type: in vivo, Rhizoctonia solani (rice plant, Chukyo Asahi); details: in Oryza sativa, 120 h, read-out: Preventive value

Row | SMILES | mortality at 800 ppm (Plutella xylostella) | mortality at 800 ppm (Tetranychus telarius (L)) | pest or weed control at 250 ppm (Botrytis cinerea) | pest or weed control at 100 ppm (Pyricularia orzae) | pest or weed control at 100 ppm (Rhizoctonia solani) | other results
1 | O=[N+]([O-])c1ccc(Nc2c(Cl)c(F)nc(F)c2Cl)c(C(F)(F)F)c1 [Reference compound, N-(2,6-difluoro-3,5-dichloro-4-pyridyl)-N-(4-nitro-2-trifluoromethylphenyl)amine, reference compound] | 0% | 40% |  |  |  | pest or weed control at 62.5 ppm (Botrytis cinerea; 62.5 ppm): 0%; pest or weed control at 12.5 ppm (Pyricularia orzae): 0%; pest or weed control at 25 ppm (Pyricularia orzae): 0%
2 | O=[N+]([O-])c1cc(C(F)(F)F)c(Cl)c([N+](=O)[O-])c1Nc1ncc(C(F)(F)F)cc1Br [compound 21] |  |  | 100% | 100% |  | pest or weed control at 500 ppm (Sphaerotheca fuliginea): 100%
3 | O=[N+]([O-])c1cc(C(F)(F)F)cc([N+](=O)[O-])c1Nc1ncc(Cl)cc1C(F)(F)F [compound 27] |  | 100% |  | 100% |  | 
4 | O=[N+]([O-])c1cc(C(F)(F)F)cc([N+](=O)[O-])c1Nc1ncc(Br)cc1C(F)(F)F [compound 28] |  | 100% |  | 100% |  | 
5 | O=[N+]([O-])c1cc(C(F)(F)F)c(Cl)c([N+](=O)[O-])c1Nc1ncc(Cl)cc1C(F)(F)F [compound 29] | 100% | 100% | 100% | 100% | 100% | 
6 | O=[N+]([O-])c1cc(C(F)(F)F)c(Cl)c([N+](=O)[O-])c1Nc1nc(Cl)c(Br)cc1C(F)(F)F [compound 31] |  |  |  |  | 90% | pest or weed control at 500 ppm (Sphaerotheca fuliginea): 100%
7 | O=[N+]([O-])c1cc(C(F)(F)F)cc([N+](=O)[O-])c1Nc1nc(Cl)c(C(F)(F)F)cc1Br [compound 32] |  |  |  | 100% | 100% | pest or weed control at 500 ppm (Sphaerotheca fuliginea): 100%
8 | O=[N+]([O-])c1cc(C(F)(F)F)c(Cl)c([N+](=O)[O-])c1Nc1ncccc1C(F)(F)F [compound 36] |  |  | 96% | 100% | 92% | 
9 | O=[N+]([O-])c1cc(C(F)(F)F)cc([N+](=O)[O-])c1Nc1ncccc1C(F)(F)F [compound 37] |  | 100% | 93% | 100% | 100% | 
10 | COc1c(C(F)(F)F)cc([N+](=O)[O-])c(Nc2ncc(C(F)(F)F)cc2Cl)c1[N+](=O)[O-] [compound 39] |  | 100% |  | 100% | 100% | 
11 | CCOc1c(C(F)(F)F)cc([N+](=O)[O-])c(Nc2ncc(C(F)(F)F)cc2Cl)c1[N+](=O)[O-] [compound 40, N-(3-chloro-5-trifluoromethyl-2-pyridyl)-2,6-dinitro-3-ethoxy-4-trifluoromethylaniline] | 100% | 100% |  | 100% | 100% | 
12 | CCCOc1c(C(F)(F)F)cc([N+](=O)[O-])c(Nc2ncc(C(F)(F)F)cc2Cl)c1[N+](=O)[O-] [compound 41] | 100% | 100% |  | 95% | 95% | 
13 | O=[N+]([O-])c1cc(C(F)(F)F)c(Oc2ccc(O)cc2)c([N+](=O)[O-])c1Nc1ncc(C(F)(F)F)cc1Cl [compound 49] |  | 100% | 100% |  | 100% | 
14 | O=[N+]([O-])c1cc([N+](=O)[O-])c(Nc2nc(Cl)ccc2C(F)(F)F)c(C(F)(F)F)c1 [compound 66, N-(2-chloro-5-trifluoromethyl-6-pyridyl)-2,4-dinitro-6-trifluoromethylaniline] | 100% |  |  |  |  | pest or weed control at 100 ppm (Sphaerotheca fuliginea; 100 ppm): 100%
15 | O=[N+]([O-])c1cc(C(F)(F)F)cc(C(F)(F)F)c1Nc1ncc(C(F)(F)F)cc1Cl [compound 89] |  | 100% |  |  |  | 
16 | O=[N+]([O-])c1cc(C(F)(F)F)cc(C(F)(F)F)c1Nc1ncc(Cl)cc1Cl [compound 90] |  | 100% |  |  |  | 
